Common to all, as to assay type: cell-based, human
Assay [1] deals with hESC. The experiment in a line: Immunofluorescence analysis of differentiation markers at day 4 of DE differentiation. The method, then:
Definitive endoderm formation: hESC were passaged onto the appropriate culture flasks or plates at 0.6×10^5 cells/cm^2 and cultured for 2 days. To initiate definitive endoderm differentiation hESC were washed once with PBS and cultured in RMPI 1640 medium (Life Technologies) supplemented with 100 ng/ml of Activin A (R&D Systems) and 0.25 to 2% of DMSO (Sigma). FBS (0.2%) was added after first 24 hours and cells were cultured for four days with media changed daily. For detection of stage-specific markers, cells were grown and differentiated in 96 well plates (uClear black plate with clear flat bottom, Greiner). Cells were rinsed twice with PBS and fixed in 4% paraformaldehyde (USB) for 15 min at room temperature and then washed twice with PBS and blocked for 30 min at RT in 1% BSA (Life Technologies) and 0.1 mg/ml human IgG (Sigma) in perm/wash buffer (BD). Cells were subsequently stained for 2 hours at RT or overnight at 4° C. with primary rabbit anti-OCT4 (Cell Signaling), mouse and anti-SOX17 (Abcam) antibodies diluted in perm/wash buffer. Cells were subsequently washed several times with perm/wash buffer and incubated at 4° C. in the dark with goat anti-mouse-FITC and chicken anti-rabbit-Cy5 (Molecular probes) diluted 1:400 in perm/wash buffer. […]

Assay [2] has as its system hESC. Description: Differentiation of hESC-derived DE towards hepatic like cells (AFP day 12, ALB day 28). The settings on record: day 28 (hepatic like cells), with increasing concentrations of DMSO during DE stage. The method, then:
Definitive endoderm formation: hESC were passaged onto the appropriate culture flasks or plates at 0.6×10^5 cells/cm^2 and cultured for 2 days. To initiate definitive endoderm differentiation hESC were washed once with PBS and cultured in RMPI 1640 medium (Life Technologies) supplemented with 100 ng/ml of Activin A (R&D Systems) and 0.25 to 2% of DMSO (Sigma). FBS (0.2%) was added after first 24 hours and cells were cultured for four days with media changed daily. Hepatic specification: hESC-derived definitive endoderm cells were washed once with PBS and cultured in KO-DMEM medium and 2% KOSR supplemented with 1 mM L-glutamine, NEAA (all from Life Technologies), B-Mercaptoethanol (Sigma), 30 ng/ml BMP2, 10 ng/ml FGF4, 0.5% DMSO for 5 days with BMP4. […] Isolation of total cellular RNA was performed using an illustra RNAspin Mini RNA Isolation Kit (GE Healthcare) and the concentration of RNA in each sample measured on a NanoDrop 1000 spectrophotometer. […] TaqMan quantitative PCR was performed using unlabelled PCR primers and FAM-based probes (Applied Biosystems by Life Technologies) in conjunction with TaqMan Universal PCR Master Mix, No AmpErase UNG (Applied Biosystems). […] Relative quantification was calculated against GAPDH and B-Actin housekeeping genes and standard derivations report n=3 replicates from each sample.

The test system of assay [3] is hESC. Description: Flow cytometry analysis of differentiation markers at day 4 of DE differentiation. The settings on record: for differentiation to DE: supplementation of Activin A, compared with Activin A and DMSO. The method, then:
Definitive endoderm formation: hESC were passaged onto the appropriate culture flasks or plates at 0.6×10^5 cells/cm^2 and cultured for 2 days. To initiate definitive endoderm differentiation hESC were washed once with PBS and cultured in RMPI 1640 medium (Life Technologies) supplemented with 100 ng/ml of Activin A (R&D Systems) and 0.25 to 2% of DMSO (Sigma). FBS (0.2%) was added after first 24 hours and cells were cultured for four days with media changed daily.
Cells cultured in 6 well plates were washed twice in PBS and treated with 0.25% trypsin-EDTA (Life Technologies) to obtain single cell suspensions. Trypsin was inactivated after 5 min of incubation by adding medium containing 10% FBS. Cells were counted, centrifuged at 300 g for 5 min, washed twice with PBS and subsequently fixed in 2% paraformaldehyde (USB). Following 15 min incubation at room temperature cells were washed in PBS and perm/wash buffer (PWB) (BD) and subsequently resuspended at 4×10^6 cells/ml in perm/wash buffer supplemented with 0.1 mg/ml human IgG (Sigma) and 10% serum from the species of secondary antibody (Life Technologies). Cells were incubated for 30 min at 4° C. and then 50 μl aliquots (2×10^5 cells) were transferred to individual 5 ml polystyrene round-bottom FACS assay tubes. For double staining of cells with OCT4 and SOX17, cells were stained in perm/wash buffer first with mouse anti-OCT4 (Cell Signalling) and incubated for 1 h at room temperature, following by two washes with PBS and incubation in perm/wash buffer with goat anti-mouse-FITC (Molecular Probes) and goat anti-SOX17-APC (R&D Systems). Following 1 h incubation at 4° C., samples were washed twice and resuspended in 0.2% FBS in PBS in a final volume of […]. Separate staining for OCT4 and SOX17 was performed analogously. Cells were analysed on a BD FACSCalibur flow cytometer and data analysed using CellQuest software.

In assay [4] the test system is hESC. Description: qRT-PCR analysis of differentiation markers at day 4 of DE differentiation. How it is done:
Definitive endoderm formation: hESC were passaged onto the appropriate culture flasks or plates at 0.6×10^5 cells/cm^2 and cultured for 2 days. To initiate definitive endoderm differentiation hESC were washed once with PBS and cultured in RMPI 1640 medium (Life Technologies) supplemented with 100 ng/ml of Activin A (R&D Systems) and 0.25 to 2% of DMSO (Sigma). FBS (0.2%) was added after first 24 hours and cells were cultured for four days with media changed daily. Isolation of total cellular RNA was performed using an illustra RNAspin Mini RNA Isolation Kit (GE Healthcare) and the concentration of RNA in each sample measured on a NanoDrop 1000 spectrophotometer. 1 μg of extracted total RNA was reverse transcribed using High Capacity cDNA Reverse Transcription Kit (Applied Biosystems). TaqMan quantitative PCR was performed using unlabelled PCR primers and FAM-based probes (Applied Biosystems by Life Technologies) in conjunction with TaqMan Universal PCR Master Mix, No AmpErase UNG (Applied Biosystems). Concentrated TaqMan PCR Master Mix (2×) was combined with water and cDNA. The final concentration of Master Mix was achieved by addition of appropriate concentrations of primers/FAM probes diluted in water. Reactions were carried out on a 7900HT Fast Real-Time PCR System (Applied Biosystems). qRT-PCR cycling conditions were: 95° C. for 10 min, and subsequently 45 cycles of 95° C. for 10 sec and 60° C. for 1 min. Each sample was run in triplicate with GAPDH as a reference gene. Analysis of results was performed in SDS Software for the 7900HT Fast Real-Time PCR System. Relative quantification was calculated against GAPDH and B-Actin housekeeping genes and standard derivations report n=3 replicates from each sample.
(In general: Quantitative PCR measures a nucleic acid by following its amplification.)

The mark [5] stands for this setting: 0.5% and 1% DMSO added to Activin A containing medium, day 4, relative to control cells treated with Activin A alone.
[6] abbreviates: increasing concentrations of DMSO with Activin A, day 4.

Take `C[S+](C)[O-]` [DMSO, dimethyl sulfoxide]: the OCT4 expression entry in the assay with hESC [1] (increasing concentrations of DMSO from 0% to 2% with Activin A) is on record as “down regulation”. In the assay on hESC [1] (with Activin A), the “DMSO concentration at which SOX 17 staining was maximum” value stood at 0.6%. In the assay with hESC [2], the ALB expression result was “increased”. Besides, in the assay with hESC [3] (setting [5]), the OCT4 expressing cells result was “decrease” and the SOX17 expressing cells entry is “increase”. For the same molecule, in the assay on hESC [3] (increasing concentrations of DMSO with Activin A, day 4, flow cytometry confirmation), the OCT4 expression entry was “down regulation”. Moreover, the “expression of pluripotency genes” value with hESC [4] (0.5% to 0.6% DMSO added to Activin A-based medium during definitive endoderm derivation) is on record as “rapid down regulation”. Moreover, in the assay with hESC [4] (DMSO method day 4 (KCGE D4) versus Hay D5), the “DE differentiation compared with established prior art method (Hay et al)” value was “significant improvement”. In addition, in the assay with hESC [4] (setting [6]), the CXCR4 expression result was “up regulation”, the GATA4 expression entry is listed as “up regulation”, the OCT4 expression entry is recorded as “significant dose dependent decrease” and the SOX17 expression result is listed as “up regulation”.

As to “FGF2: growth factor reported to aid in DE differentiation, used in conjunction with Activin A”, in the assay with hESC [3], the “differentiation to DE” value was “inferior”.

B1: Wnt3a: growth factor reported to aid in DE differentiation, used in conjunction with Activin A (protein, UniProt P56704 19-352, looked up)
Protein Wnt-3a: SYPIWWSLAVGPQYSSLGSQPILCASIPGLVPKQLRFCRNYVEIMPSVAEGIKIGIQECQHQFRGRRWNCTTVHDSLAIFGPVLDKATRESAFVHAIASAGVAFAVTRSCAEGTAAICGCSSRHQGSPGKGWKWGGCSEDIEFGGMVSREFADARENRPDARSAMNRHNNEAGRQAIASHMHLKCKCHGLSGSCEVKTCWWSQPDFRAIGDFLKDKYDSASEMVVEKHRESRGWVETLRPRYTYFKVPTERDLVYYEASPNFCEPNPETGSFGTRDRTCNVSSHGIDGCDLLCCGRGHNARAERRREKCRCVFHWCCYVSCQECTRVYDVHTCK
On to B1, for which the “differentiation to DE” value with hESC [3] was “inferior”.

Source of the values: US9404086B2, “Method for cell differentiation” (GE HEALTHCARE UK LIMITED, priority 2014, dated 2016).
